`N#Cc1ccc(-c2cccc(C3=Nc4ccc(C(F)(F)F)cc4NC(=O)C3)c2)cn1` [Example 204, 5-[3-(4-Oxo-7-trifluoromethyl-4,5-dihydro-3H-benzo[b][1,4]diazepin-2-yl)-phenyl]-pyridine-2-carbonitrile] gave a melting point of 234 to 237 °C.
In the case of `O=C1CC(c2cccc(-c3cccnn3)c2)=Nc2ccc(C(F)(F)F)cc2N1` [Example 205, 4-(3-Pyridazin-3-yl-phenyl)-8-trifluoromethyl-1,3-dihydro-benzo[b][1,4]diazepin-2-one], the melting point lay within 238 to 240 °C.
In turn, `O=C1CC(c2cccc(-c3ccc(C4CC4)nc3)c2)=Nc2ccc(OC(F)(F)F)cc2N1` [Example 207, 4-[3-(6-Cyclopropyl-pyridin-3-yl)-phenyl]-8-trifluoromethoxy-1,3-dihydro-benzo[b][1,4]diazepin-2-one] registered a melting point of 190 to 191 °C.
`COCCOc1cc2c(cc1C(F)(F)F)NC(=O)CC(c1cccc(-c3cccnc3)c1)=N2` [Example 208, 7-(2-Methoxy-ethoxy)-4-(3-pyridin-3-yl-phenyl)-8-trifluoromethyl-1,3-dihydro-benzo[b][1,4]diazepin-2-one] displayed a melting point of 190 to 191 °C.
As for `CCc1cc2c(cc1C(F)(F)F)NC(=O)CC(c1cccc(-c3ccnc(C#N)c3)c1)=N2` [Example 210, 4-[3-(8-Ethyl-4-oxo-7-trifluoromethyl-4,5-dihydro-3H-benzo[b][1,4]diazepin-2-yl)-phenyl]-pyridine-2-carbonitrile], the melting point is 210 to 217 °C.
On to `CCc1cc2c(cc1C(F)(F)F)NC(=O)CC(c1cccc(-c3cccnc3)c1)=N2` [Example 211, 7-Ethyl-4-(3-pyridin-3-yl-phenyl)-8-trifluoromethyl-1,3-dihydro-benzo[b][1,4]diazepin-2-one], for which the melting point is 197 to 198 °C.
Take `COc1ccc(-c2cccc(C3=Nc4ccc(OC(F)(F)F)cc4NC(=O)C3)c2)cn1` [Example 212, 4-[3-(6-Methoxy-pyridin-3-yl)-phenyl]-8-trifluoromethoxy-1,3-dihydro-benzo[b][1,4]diazepin-2-one]: the melting point is 186 °C.
The figure for `Cc1cc(-c2cccc(C3=Nc4ccc(OC(F)(F)F)cc4NC(=O)C3)c2)cc(C)n1` [Example 213, 4-[3-(2,6-Dimethyl-pyridin-4-yl)-phenyl]-8-trifluoromethoxy-1,3-dihydro-benzo[b][1,4]diazepin-2-one] is 190 to 193 °C.
The compound `C=Cc1cc2c(cc1C(F)(F)F)NC(=O)CC(c1cccc(-c3cccnc3)c1)=N2` [Example 214, 4-(3-Pyridin-3-yl-phenyl)-8-trifluoromethyl-7-vinyl-1,3-dihydro-benzo[b][1,4]diazepin-2-one] registered a melting point of 208 to 209 °C.
On to `CCCOc1cc2c(cc1C(F)(F)F)NC(=O)CC(c1cccc(-c3cccnc3)c1)=N2` [Example 215, 7-Propoxy-4-(3-pyridin-3-yl-phenyl)-8-trifluoromethyl-1,3-dihydro-benzo[b][1,4]diazepin-2-one], for which the melting point was 219 to 221 °C.
Compound `CCCOc1cc2c(cc1C(F)(F)F)NC(=O)CC(c1cccc(-c3ccc(C4CC4)nc3)c1)=N2` [Example 216, 4-[3-(6-Cyclopropyl-pyridin-3-yl)-phenyl]-7-propoxy-8-trifluoromethyl-1,3-dihydro-benzo[b][1,4]diazepin-2-one] gave a melting point of 209 to 210 °C.
`Cc1cc2c(cc1C(F)(F)F)NC(=O)CC(c1cccc(-c3ccc(N(C)C)nc3)c1)=N2` [Example 217, 4-[3-(6-Dimethylamino-pyridin-3-yl)-phenyl]-7-methyl-8-trifluoromethyl-1,3-dihydro-benzo[b][1,4]diazepin-2-one] yielded a melting point of 231 to 233 °C.
The same measure for `CN(C)c1ccc(-c2cccc(C3=Nc4cc(OCC(F)(F)F)c(C(F)(F)F)cc4NC(=O)C3)c2)cn1` [Example 218, 4-[3-(6-Dimethylamino-pyridin-3-yl)-phenyl]-7-(2,2,2-trifluoro-ethoxy)-8-trifluoromethyl-1,3-dihydro-benzo[b][1,4]diazepin-2-one]: 240 to 241 °C.
The compound `CCCOc1cc2c(cc1C(F)(F)F)NC(=O)CC(c1cccc(-c3cc(C)nc(C)c3)c1)=N2` [Example 219, 4-[3-(2,6-Dimethyl-pyridin-4-yl)-phenyl]-7-propoxy-8-trifluoromethyl-1,3-dihydro-benzo[b][1,4]diazepin-2-one] showed a melting point of 205 to 206 °C.
For the compound `O=C1CC(c2cccc(-c3cccnc3C3CC3)c2)=Nc2ccc(C(F)(F)F)cc2N1` [Example 220, 4-[3-(2-Cyclopropyl-pyridin-3-yl)-phenyl]-8-trifluoromethyl-1,3-dihydro-benzo[b][1,4]diazepin-2-one], the melting point fell in the range of 171 to 173 °C.
On to `Cc1cc2c(cc1C(F)(F)F)NC(=O)CC(c1cccc(-c3cccnc3C3CC3)c1)=N2` [Example 221, 4-[3-(2-Cyclopropyl-pyridin-3-yl)-phenyl]-7-methyl-8-trifluoromethyl-1,3-dihydro-benzo[b][1,4]diazepin-2-one], for which the melting point is 173 to 175 °C.
`Cc1ccncc1-c1cccc(C2=Nc3ccc(C(F)(F)F)cc3NC(=O)C2)c1` [Example 226, 4-[3-(4-Methyl-pyridin-3-yl)-phenyl]-8-trifluoromethyl-1,3-dihydro-benzo[b][1,4]diazepin-2-one]: the melting point is 220 to 221 °C.
Consider `CCOc1cc2c(cc1C(F)(F)F)NC(=O)CC(c1cccc(-c3cccnc3C3CC3)c1)=N2` [Example 227, 4-[3-(2-Cyclopropyl-pyridin-3-yl)-phenyl]-7-ethoxy-8-trifluoromethyl-1,3-dihydro-benzo[b][1,4]diazepin-2-one], for which the melting point is 187 to 188 °C.
`CCCc1cc2c(cc1C(F)(F)F)NC(=O)CC(c1cccc(-c3cc(C)nc(C)c3)c1)=N2` [Example 229, 4-[3-(2,6-Dimethyl-pyridin-4-yl)-phenyl]-7-propyl-8-trifluoromethyl-1,3-dihydro-benzo[b][1,4]diazepin-2-one] showed a melting point of 216 °C.
As for `CCCc1cc2c(cc1C(F)(F)F)NC(=O)CC(c1cccc(-c3cccnc3)c1)=N2` [Example 230, 7-Propyl-4-(3-pyridin-3-yl-phenyl)-8-trifluoromethyl-1,3-dihydro-benzo[b][1,4]diazepin-2-one], the melting point was determined as 162 °C.
In turn, `CCOc1cc2c(cc1C(F)(F)F)NC(=O)CC(c1cccc(-c3cnccc3C)c1)=N2` [Example 231, 7-Ethoxy-4-[3-(4-methyl-pyridin-3-yl)-phenyl]-8-trifluoromethyl-1,3-dihydro-benzo[b][1,4]diazepin-2-one] gave a melting point of 213 to 214 °C.
In turn, `Cc1ccncc1-c1cccc(C2=Nc3cc(OCC(F)(F)F)c(C(F)(F)F)cc3NC(=O)C2)c1` [Example 232, 4-[3-(4-Methyl-pyridin-3-yl)-phenyl]-7-(2,2,2-trifluoro-ethoxy)-8-trifluoromethyl-1,3-dihydro-benzo[b][1,4]diazepin-2-one] had a melting point of 198 to 200 °C.
With `Cc1ccncc1-c1cccc(C2=Nc3cc(C)c(C(F)(F)F)cc3NC(=O)C2)c1` [Example 233, 7-Methyl-4-[3-(4-methyl-pyridin-3-yl)-phenyl]-8-trifluoromethyl-1,3-dihydro-benzo[b][1,4]diazepin-2-one], the melting point lay within 205 to 207 °C.
Compound `CCc1ncccc1-c1cccc(C2=Nc3cc(C)c(C(F)(F)F)cc3NC(=O)C2)c1` [Example 234, 4-[3-(2-Ethyl-pyridin-3-yl)-phenyl]-7-methyl-8-trifluoromethyl-1,3-dihydro-benzo[b][1,4]diazepin-2-one] gave a melting point of 213 °C.
Take `CCOc1cc2c(cc1C(F)(F)F)NC(=O)CC(c1cccc(-c3cccnc3CC)c1)=N2` [Example 235, 7-Ethoxy-4-[3-(2-ethyl-pyridin-3-yl)-phenyl]-8-trifluoromethyl-1,3-dihydro-benzo[b][1,4]diazepin-2-one]: the melting point is 214 °C.
As for `CCc1ncccc1-c1cccc(C2=Nc3cc(OCC(F)(F)F)c(C(F)(F)F)cc3NC(=O)C2)c1` [Example 236, 4-[3-(2-Ethyl-pyridin-3-yl)-phenyl]-7-(2,2,2-trifluoro-ethoxy)-8-trifluoromethyl-1,3-dihydro-benzo[b][1,4]diazepin-2-one], the melting point stood at 184 °C.
For `Cc1ccc(-c2cccc(C3=Nc4cc(C)c(C(F)(F)F)cc4NC(=O)C3)c2)cn1` [Example 237, 7-Methyl-4-[3-(6-methyl-pyridin-3-yl)-phenyl]-8-trifluoromethyl-1,3-dihydro-benzo[b][1,4]diazepin-2-one], the melting point was found to be 235 °C.
The figure for `CCOc1cc2c(cc1C(F)(F)F)NC(=O)CC(c1cccc(-c3ccc(C)nc3)c1)=N2` [Example 238, 7-Ethoxy-4-[3-(6-methyl-pyridin-3-yl)-phenyl]-8-trifluoromethyl-1,3-dihydro-benzo[b][1,4]diazepin-2-one] is 210 °C; for `Cc1ccc(-c2cccc(C3=Nc4cc(OCC(F)(F)F)c(C(F)(F)F)cc4NC(=O)C3)c2)cn1` [Example 239, 4-[3-(6-Methyl-pyridin-3-yl)-phenyl]-7-(2,2,2-trifluoro-ethoxy)-8-trifluoromethyl-1,3-dihydro-benzo[b][1,4]diazepin-2-one] it is 159 °C; for `Cc1cc(-c2cccc(C3=Nc4cc(F)c(C(F)(F)F)cc4NC(=O)C3)c2)cc(C)n1` [Example 240, 4-[3-(2,6-Dimethyl-pyridin-4-yl)-phenyl]-7-fluoro-8-trifluoromethyl-1,3-dihydro-benzo[b][1,4]diazepin-2-one] it is 251 to 252 °C.
The compound `C=Cc1cc2c(cc1C(F)(F)F)NC(=O)CC(c1cccc(-c3cc(C)nc(C)c3)c1)=N2` [Example 241, 4-[3-(2,6-Dimethyl-pyridin-4-yl)-phenyl]-8-trifluoromethyl-7-vinyl-1,3-dihydro-benzo[b][1,4]diazepin-2-one] came in with a melting point of 225 to 226 °C.
In turn, `COCCOc1cc2c(cc1C(F)(F)F)NC(=O)CC(c1cccc(-c3ccnc(C)c3)c1)=N2` [Example 242, 7-(2-Methoxy-ethoxy)-4-[3-(2-methyl-pyridin-4-yl)-phenyl]-8-trifluoromethyl-1,3-dihydro-benzo[b][1,4]diazepin-2-one] came in with a melting point of 198 to 199 °C.

The melting point is the temperature of the solid-liquid transition.

(Values after patent US6949542B2, “Dihydro-benzo[b][1,4]diazepin-2-one derivatives” (Hoffman-La Roche Inc., priority 2002, dated 2005).)
